Measured values from US6432430B1, “Exfoliating scrub with niacinamide” (priority 2000, dated 2002).

System: acne
Assay: topical use of the exfoliating scrub on acne, washed off immediately after use
Assay type: in vivo
Conditions: niacinamide in exfoliating cream, cream immediately removed
Description: The cream is applied to the affected area, typically the face, and is used in the same manner as other exfoliating scrubs by massaging the cream into the skin. The abrasive agent acts to remove dead skin cells and the niacinamide is brought into direct contact with the affected areas. The cream is then removed by washing the area with water, and if desired, a mild soap. […] The frequency with which the exfoliating scrub is applied depends upon several factors, including the severity of the skin condition, and the user's skin type and sensitivity. Patients having oily skin may use the scrub as often as once to twice per day. Patients having dry skin or sensitive skin generally will use the scrub less often. The precise frequency is determined on a case by case basis influenced by the actual results achieved. As described above, the cream is topically applied to the area to be treated and is gently massaged into the skin. The cream is then immediately removed, preferably with warm water. The skin may beneficially be thoroughly cleansed prior to application of the cream of the present invention. In all cases the scrub is washed from the skin immediately after use.

Question: How did the “therapeutic effect on acne” value turn out when `NC(=O)c1cccnc1` [niacinamide] was run?
Answer: beneficial therapeutic effect on acne
